Where “and” joins values, the source holds several entries; their conditions need not be identical. Equal entries are not always repeated.
Experiments:
Assay type in all cases: functional
SF-539 = experiment: Growth inhibition of human SF-539 cells assessed as growth percentage at 10 uM incubated for 48 hrs by sulforhodamine B assay relative to control; conditions: read-out: Activity
SW-620 = experiment: Growth inhibition of human SW-620 cells incubated for 48 hrs by sulforhodamine B assay; conditions: for CC50: read-out: LC50 (the source's name)
ACHN = experiment: Growth inhibition of human ACHN cells assessed as growth percentage at 10 uM incubated for 48 hrs by sulforhodamine B assay relative to control; conditions: read-out: Activity
SK-MEL-2 = experiment: Growth inhibition of human SK-MEL-2 cells assessed as growth percentage at 10 uM incubated for 48 hrs by sulforhodamine B assay relative to control; conditions: read-out: Activity
SNB-75 = experiment: Growth inhibition of human SNB-75 cells assessed as growth percentage at 0.01 uM incubated for 48 hrs by sulforhodamine B assay relative to control; conditions: read-out: Activity
CAKI-1 [1] = experiment: Growth inhibition of human CAKI-1 cells incubated for 48 hrs by sulforhodamine B assay; conditions: for CC50: read-out: LC50 (the source's name); for GI50: CAKI-1
NCI-H226 = experiment: Growth inhibition of human NCI-H226 cells incubated for 48 hrs by sulforhodamine B assay; conditions: for CC50: read-out: LC50 (the source's name); for TGI: NCI-H226
KM12 = experiment: Growth inhibition of human KM12 cells assessed as growth percentage at 0.1 uM incubated for 48 hrs by sulforhodamine B assay relative to control; conditions: read-out: Activity
MDA-MB-435 [2] = experiment: Growth inhibition of human MDA-MB-435 cells assessed as growth percentage at 1 uM incubated for 48 hrs by sulforhodamine B assay relative to control; conditions: read-out: Activity
UACC-257 = experiment: Growth inhibition of human UACC-257 cells incubated for 48 hrs by sulforhodamine B assay
Malme-3M = experiment: Growth inhibition of human Malme-3M cells assessed as growth percentage at 0.01 uM incubated for 48 hrs by sulforhodamine B assay relative to control; conditions: read-out: Activity
RXF 393 [3] = experiment: Growth inhibition of human RXF 393 cells assessed as growth percentage at 0.01 uM incubated for 48 hrs by sulforhodamine B assay relative to control; conditions: read-out: Activity
RXF 393 [4] = experiment: Growth inhibition of human RXF 393 cells assessed as growth percentage at 10 uM incubated for 48 hrs by sulforhodamine B assay relative to control; conditions: read-out: Activity
SK-MEL-5 = experiment: Growth inhibition of human SK-MEL-5 cells assessed as growth percentage at 1 uM incubated for 48 hrs by sulforhodamine B assay relative to control; conditions: read-out: Activity
LOX IMVI = experiment: Growth inhibition of human LOX IMVI cells assessed as growth percentage at 1 uM incubated for 48 hrs by sulforhodamine B assay relative to control; conditions: read-out: Activity
U-251 = experiment: Growth inhibition of human U-251 cells assessed as growth percentage at 100 uM incubated for 48 hrs by sulforhodamine B assay relative to control; conditions: read-out: Activity
BT-549 = experiment: Growth inhibition of human BT-549 cells assessed as growth percentage at 10 uM incubated for 48 hrs by sulforhodamine B assay relative to control; conditions: read-out: Activity
RXF 393 [5] = experiment: Growth inhibition of human RXF 393 cells assessed as growth percentage at 100 uM incubated for 48 hrs by sulforhodamine B assay relative to control; conditions: read-out: Activity
NCI-H460 = experiment: Growth inhibition of human NCI-H460 cells assessed as growth percentage at 1 uM incubated for 48 hrs by sulforhodamine B assay relative to control; conditions: read-out: Activity
HCT-15 = experiment: Growth inhibition of human HCT-15 cells assessed as growth percentage at 100 uM incubated for 48 hrs by sulforhodamine B assay relative to control; conditions: read-out: Activity
SF-268 [6] = experiment: Growth inhibition of human SF-268 cells assessed as growth percentage at 1 uM incubated for 48 hrs by sulforhodamine B assay relative to control; conditions: read-out: Activity
HCT-116 = experiment: Growth inhibition of human HCT-116 cells assessed as growth percentage at 0.1 uM incubated for 48 hrs by sulforhodamine B assay relative to control; conditions: read-out: Activity
CAKI-1 [7] = experiment: Growth inhibition of human CAKI-1 cells assessed as growth percentage at 0.1 uM incubated for 48 hrs by sulforhodamine B assay relative to control; conditions: read-out: Activity
TK-10 = experiment: Growth inhibition of human TK-10 cells assessed as growth percentage at 0.1 uM incubated for 48 hrs by sulforhodamine B assay relative to control; conditions: read-out: Activity
UACC-62 = experiment: Growth inhibition of human UACC-62 cells assessed as growth percentage at 0.01 uM incubated for 48 hrs by sulforhodamine B assay relative to control; conditions: read-out: Activity
PC-3 = experiment: Growth inhibition of human PC-3 cells assessed as growth percentage at 100 uM incubated for 48 hrs by sulforhodamine B assay relative to control; conditions: read-out: Activity
M14 = experiment: Growth inhibition of human M14 cells assessed as growth percentage at 0.1 uM incubated for 48 hrs by sulforhodamine B assay relative to control; conditions: read-out: Activity
MDA-MB-435 [8] = experiment: Growth inhibition of human MDA-MB-435 cells assessed as growth percentage at 100 uM incubated for 48 hrs by sulforhodamine B assay relative to control; conditions: read-out: Activity
OVCAR-3 [9] = experiment: Growth inhibition of human OVCAR-3 cells assessed as growth percentage at 100 uM incubated for 48 hrs by sulforhodamine B assay relative to control; conditions: read-out: Activity
IGROV-1 = experiment: Growth inhibition of human IGROV-1 assessed as growth percent at 0.01 uM incubated for 48 hrs by sulforhodamine B assay relative to control; conditions: read-out: Activity
OVCAR-4 [10] = experiment: Growth inhibition of human OVCAR-4 cells incubated for 48 hrs by sulforhodamine B assay; conditions: for CC50: read-out: LC50 (the source's name)
SNB-19 = experiment: Growth inhibition of human SNB-19 cells assessed as growth percentage at 0.01 uM incubated for 48 hrs by sulforhodamine B assay relative to control; conditions: read-out: Activity
OVCAR-3 [11] = experiment: Growth inhibition of human OVCAR-3 cells assessed as growth percentage at 1 uM incubated for 48 hrs by sulforhodamine B assay relative to control; conditions: read-out: Activity
OVCAR-3 [12] = experiment: Growth inhibition of human OVCAR-3 cells assessed as growth percentage at 0.1 uM incubated for 48 hrs by sulforhodamine B assay relative to control; conditions: read-out: Activity
MCF7 = experiment: Growth inhibition of human MCF7 cells assessed as growth percentage at 100 uM incubated for 48 hrs by sulforhodamine B assay relative to control; conditions: read-out: Activity
SF-268 [13] = experiment: Growth inhibition of human SF-268 cells assessed as growth percentage at 0.01 uM incubated for 48 hrs by sulforhodamine B assay relative to control; conditions: read-out: Activity
OVCAR-4 [14] = experiment: Growth inhibition of human OVCAR-4 cells assessed as growth percentage at 1 uM incubated for 48 hrs by sulforhodamine B assay relative to control; conditions: read-out: Activity
T47D = experiment: Growth inhibition of human T47D cells assessed as growth percent at 0.1 uM incubated for 48 hrs by sulforhodamine B assay relative to control; conditions: read-out: Activity

Nc1nc2[nH]c(CN3CCN(c4cc(Cl)cc(Cl)c4)CC3)c(CN3CCN(c4cc(Cl)cc(Cl)c4)CC3)c2c(=O)[nH]1
growth at 10 µM (SF-539): 84.5% | GI50 (SW-620; Homo sapiens, SW-620, 48 h): 1720 nM | TGI (SW-620; Homo sapiens, SW-620, 48 h): 3500 nM | CC50 (SW-620; Homo sapiens, SW-620, 48 h): 7120 nM | growth at 10 µM (ACHN): 96.8% | growth at 10 µM (SK-MEL-2): 108% | growth at 0.01 µM (SNB-75): 81% | TGI (CAKI-1 [1]; 48 h): 18000 nM and 1800 nM | CC50 (CAKI-1 [1]; 48 h): 43700 nM and 4370 nM | GI50 (CAKI-1 [1]; Homo sapiens): 5100 nM | GI50 (NCI-H226; 48 h): 1580 nM and 15800 nM | CC50 (NCI-H226; 48 h): > 100000 nM | TGI (NCI-H226; Homo sapiens): 5370 nM | growth at 0.1 µM (KM12): 105% | growth at 1 µM (MDA-MB-435 [2]): 88% | GI50 (UACC-257; Homo sapiens, UACC-257, 48 h): 2060 nM | TGI (UACC-257; Homo sapiens, UACC-257, 48 h): 4760 nM | growth at 0.01 µM (Malme-3M): 95% | growth at 0.01 µM (RXF 393 [3]): 95% | growth at 10 µM (RXF 393 [4]): 81% | growth at 1 µM (SK-MEL-5): 89% | growth at 1 µM (LOX IMVI): 104% | growth at 100 µM (U-251): -50% | growth at 10 µM (BT-549): 87% | growth at 100 µM (RXF 393 [5]): -28% | growth at 1 µM (NCI-H460): 98% | growth at 100 µM (HCT-15): -49% | growth at 1 µM (SF-268 [6]): 94% | growth at 0.1 µM (HCT-116): 99% | growth at 0.1 µM (CAKI-1 [7]): 90% | growth at 0.1 µM (TK-10): 103% | growth at 0.01 µM (UACC-62): 101% | growth at 100 µM (PC-3): -81% | growth at 0.1 µM (M14): 98% | growth at 100 µM (MDA-MB-435 [8]): -80% | growth at 100 µM (OVCAR-3 [9]): -84% | growth at 0.01 µM (IGROV-1): 104% | GI50 (OVCAR-4 [10]): 1580 nM | TGI (OVCAR-4 [10]): 3150 nM | CC50 (OVCAR-4 [10]): 6250 nM | growth at 0.01 µM (SNB-19): 96% | growth at 1 µM (OVCAR-3 [11]): 98% | growth at 0.1 µM (OVCAR-3 [12]): 106% | growth at 100 µM (MCF7): -48% | growth at 0.01 µM (SF-268 [13]): 102% | growth at 1 µM (OVCAR-4 [14]): 83% | growth at 0.1 µM (T47D): 90%

CCCCCCCC(=O)Nc1nc2[nH]c(CN3CCN(Cc4cccc(F)c4)CC3)c(CN3CCN(Cc4cccc(F)c4)CC3)c2c(=O)[nH]1
growth at 10 µM (SF-539): -96.9% | GI50 (SW-620; 48 h): 190 nM | TGI (SW-620; 48 h): 380 nM | CC50 (SW-620; 48 h): 740 nM | GI50 (SW-620; Homo sapiens, SW-620, 48 h): 191 nM | TGI (SW-620; Homo sapiens, SW-620, 48 h): 377 nM | CC50 (SW-620; Homo sapiens, SW-620, 48 h): 744 nM | growth at 10 µM (ACHN): -96.6% | growth at 10 µM (SK-MEL-2): -66.9% | growth at 0.01 µM (SNB-75): 93% | GI50 (CAKI-1 [1]; Homo sapiens): 1320 nM | TGI (CAKI-1 [1]; Homo sapiens, CAKI-1, 48 h): 2610 nM | CC50 (CAKI-1 [1]; Homo sapiens, CAKI-1, 48 h): 5180 nM | TGI (NCI-H226; Homo sapiens): 3840 nM | GI50 (NCI-H226; Homo sapiens, NCI-H226, 48 h): 1840 nM | CC50 (NCI-H226; Homo sapiens, NCI-H226, 48 h): 8040 nM | growth at 0.1 µM (KM12): 93% | growth at 1 µM (MDA-MB-435 [2]): 10% | GI50 (UACC-257; 48 h): 200 nM | TGI (UACC-257; 48 h): 460 nM | GI50 (UACC-257; Homo sapiens, UACC-257, 48 h): 203 nM | LC50 (concentration killing 50% of cells) (UACC-257; Homo sapiens, UACC-257, 48 h): 1090 nM | TGI (UACC-257; Homo sapiens, UACC-257, 48 h): 456 nM | growth at 0.01 µM (Malme-3M): 98% | growth at 0.01 µM (RXF 393 [3]): 100% | growth at 10 µM (RXF 393 [4]): -92.4% | growth at 1 µM (SK-MEL-5): 84% | growth at 1 µM (LOX IMVI): -58% | growth at 100 µM (U-251): -95% | growth at 10 µM (BT-549): 29% | growth at 100 µM (RXF 393 [5]): -95% | growth at 1 µM (NCI-H460): 11% | growth at 100 µM (HCT-15): -85% | growth at 1 µM (SF-268 [6]): 65% | growth at 0.1 µM (HCT-116): 93% | growth at 0.1 µM (CAKI-1 [7]): 85% | growth at 0.1 µM (TK-10): 96% | growth at 0.01 µM (UACC-62): 97% | growth at 100 µM (PC-3): -88% | growth at 0.1 µM (M14): 94% | growth at 100 µM (MDA-MB-435 [8]): -83% | growth at 100 µM (OVCAR-3 [9]): -73% | growth at 0.01 µM (IGROV-1): 98% | GI50 (OVCAR-4 [10]): 1210 nM | TGI (OVCAR-4 [10]): 2540 nM | CC50 (OVCAR-4 [10]): 5310 nM | growth at 0.01 µM (SNB-19): 96% | growth at 1 µM (OVCAR-3 [11]): 44% | growth at 0.1 µM (OVCAR-3 [12]): 102% | growth at 100 µM (MCF7): -63% | growth at 0.01 µM (SF-268 [13]): 99% | growth at 1 µM (OVCAR-4 [14]): 63% | growth at 0.1 µM (T47D): 88%

From ChEMBL document CHEMBL4673219, “Novel 5,6-disubstituted pyrrolo[2,3-d]pyrimidine derivatives as broad spectrum antiproliferative agents: Synthesis, cell based assays, kinase profile and molecular docking study” (Bioorg Med Chem, 2018)
